Source: patent US9737075B2, “Synergistic benzoxaborole-containing anti-fungicidal composition” (The Penn State Research Foundation, priority 2015, dated 2017)
Converted amounts (≈) assume the structure as drawn. Like-named read-outs stand apart in the source and are kept apart here.

Legend:
Assay type in all cases: cell-based
Botrytis cinerea 10-1728 = test: Broth microdilution MIC of individual antifungals; conditions: Botrytis cinerea 10-1728, individual antifungal, 25% PDB, about 25° C., 72 hours, range over N independent triplicate studies; for MIC: 101728, read-out: Independent MIC
Magnaporthe grisea = test: microbe, parasite or virus in culture; conditions: for Independent MIC: Magnaporthe grisea, individual antifungal, 25% PDB, about 25° C., 72 hours, range over N independent triplicate studies; for MIC: Pyricularia oryzae, 72 h, read-out: Independent MIC
Aspergillus niger = test: Broth microdilution MIC of individual antifungals; conditions: for MIC: read-out: Independent MIC
Rhizopus sp. = test: Broth microdilution MIC of individual antifungals; conditions: for MIC: Rhizopus, 72 h, read-out: Independent MIC
Botrytis cinerea B17 = test: Broth microdilution MIC of individual antifungals; conditions: Botrytis cinerea B17; individual antifungal, 25% PDB, about 25° C., 72 hours; range over N independent triplicate studies; read-out: Independent MIC
Mucor sp. = test: Broth microdilution MIC of individual antifungals; conditions: individual antifungal, 25% PDB, about 25° C., 72 hours, range over N independent triplicate studies
Sclerotinia homoeocarpa = test: Broth microdilution MIC of individual antifungals; conditions: Sclerotinia homoeocarpa, individual antifungal, 25% PDB, about 25° C., 72 hours, range over N independent triplicate studies; for MIC: Clarireedia homoeocarpa, read-out: Independent MIC
Aureobasidium pullulans = test: Broth microdilution MIC of individual antifungals; conditions: read-out: Independent MIC
Alternaria solani = test: Broth microdilution MIC of individual antifungals; conditions: individual antifungal, 25% PDB, about 25° C., 72 hours, range over N independent triplicate studies; for MIC: read-out: Independent MIC
Stachybotrys chartarum = test: Broth microdilution MIC of individual antifungals; conditions: individual antifungal, 25% PDB, about 25° C., 72 hours, range over N independent triplicate studies, read-out: Independent MIC
Aspergillus fumigatus = test: Broth microdilution MIC of individual antifungals; conditions: individual antifungal, 25% PDB, about 25° C., 72 hours, range over N independent triplicate studies; for MIC: read-out: Independent MIC
Phytophthora pini = test: Broth microdilution MIC of individual antifungals; conditions: individual antifungal, 25% PDB, about 25° C., 72 hours, range over N independent triplicate studies
Penicillium chrysogenum = test: Broth microdilution MIC of individual antifungals; conditions: individual antifungal, 25% PDB, about 25° C., 72 hours, range over N independent triplicate studies, read-out: Independent MIC
Aspergillus flavus = test: Broth microdilution MIC of individual antifungals; conditions: individual antifungal, 25% PDB, about 25° C., 72 hours, range over N independent triplicate studies, read-out: Independent MIC
[1] = tested on: Colletotrichum orbiculare; test: Broth microdilution MIC of individual antifungals; conditions: individual antifungal, 25% PDB, about 25° C., 72 hours, range over N independent triplicate studies; for MIC: read-out: Independent MIC
Fusarium graminearum = test: microbe, parasite or virus in culture; conditions: Fusarium graminearum; for MIC: 72 h, read-out: Independent MIC
[2] = tested on: Mycosphaerella zeae-maydis; test: Broth microdilution MIC of individual antifungals; conditions: Didymella maydis, individual antifungal, 25% PDB, about 25° C., 72 hours, range over N independent triplicate studies
Fusarium verticillioides = test: Broth microdilution MIC of individual antifungals; conditions: individual antifungal, 25% PDB, about 25° C., 72 hours, range over N independent triplicate studies, read-out: Independent MIC
Candida albicans = test: Broth microdilution MIC of individual antifungals; conditions: individual antifungal, 25% PDB, about 25° C., 72 hours, range over N independent triplicate studies, read-out: Independent MIC
[3] = tested on: Fusarium solani f. sp. pisi (MP VI); test: Broth microdilution MIC of individual antifungals; conditions: Fusarium solani f. sp. pisi (MP VI); individual antifungal, 25% PDB, about 25° C., 72 hours; range over N independent triplicate studies; read-out: Independent MIC
[4] = individual antifungal, 25% PDB, about 25° C., 72 hours, range over N independent triplicate studies
[5] = Rhizopus sp., individual antifungal, 25% PDB, about 25° C., 72 hours, range over N independent triplicate studies

SMILES	MIC (Botrytis cinerea 10-1728) [µg/mL]	MIC (Mucor sp.) [µg/mL]	MIC (Sclerotinia homoeocarpa) [µg/mL]	MIC (Magnaporthe grisea) [µg/mL]	MIC (Alternaria solani) [µg/mL]	MIC (Aspergillus niger; [4]) [µg/mL]	MIC (Aspergillus fumigatus) [µg/mL]	MIC (Rhizopus sp.; [5]) [µg/mL]	further results
Cn1cc(C(=O)Nc2ccccc2-c2cc(F)c(F)c(F)c2)c(C(F)F)n1 [Fluxapyroxad, fluxapyroxad]	–	–	–	–	–	–	–	–	Independent MIC (Botrytis cinerea 10-1728): 6.25 µg/mL; Independent MIC (Magnaporthe grisea): 3.13 µg/mL; Independent MIC (Aspergillus niger; [4]): (0.39-0.4) μg/mL
CC(C)NC(=O)N1CC(=O)N(c2cc(Cl)cc(Cl)c2)C1=O [Iprodione, ipordione]	15 to 25	1.56 to 6.25	4 to 10	12.5 (≈ 37.9 µM)	3.12 to 6.25	50 to 100	12.5 to 50	–	MIC (Rhizopus sp.): 3.12 to 12.5 µg/mL; MIC (Botrytis cinerea B17): 16 to 20 µg/mL; MIC (Aureobasidium pullulans; 72 h): 12.5 to 50 µg/mL; MIC (Stachybotrys chartarum): 25 to 30 µg/mL
C[C@H]1O[C@H](O[C@H]2[C@H](O)[C@@H](O)[C@@H](O)[C@H](O)[C@@H]2O)[C@@H](N)C[C@@H]1NC(=N)C(=O)O [Kasugamycin]	–	–	–	–	–	–	–	–	Independent MIC (Botrytis cinerea 10-1728): 200 µg/mL; Independent MIC (Sclerotinia homoeocarpa): 100 µg/mL; Independent MIC (Alternaria solani): (100-200) μg/mL; Independent MIC (Phytophthora pini): 200 µg/mL
CC#Cc1cc(C)nc(Nc2ccccc2)n1 [Mepanipyrim, mepanipyrim]	50 to 100	–	0.098 to 0.19	–	–	25	0.05 to 0.1	50	MIC (Penicillium chrysogenum): 0.025 to 0.048 µg/mL; MIC (Aspergillus flavus): 0.75 µg/mL
COCC(=O)N(c1c(C)cccc1C)C(C)C(=O)OC (stereo not shown) [Metalaxyl, metalaxyl]	–	–	128 to 200	–	–	400	400	400	MIC (Botrytis cinerea B17): 50 to 64 µg/mL; MIC (Aspergillus flavus): 400 µg/mL
CC(C)CC(C)c1sccc1NC(=O)c1cn(C)nc1C(F)(F)F (stereo not shown) [Penthiopyrad, penthiopyrad]	15 to 25	–	–	1.56 (≈ 4.34 µM)	–	–	–	–	MIC [1]: 50 to 100 µg/mL; MIC (Aspergillus flavus): 100 µg/mL; MIC (Aspergillus niger; 72 h): 0.78 to 1.56 µg/mL
CO/C=C(/C(=O)OC)c1ccccc1COc1cccc(C(F)(F)F)n1 [Picoxystrobin, picoxystrobin]	–	–	–	–	–	–	–	–	Independent MIC (Botrytis cinerea 10-1728): (100-200) μg/mL; Independent MIC (Mucor sp.): (50-200) μg/mL; Independent MIC (Sclerotinia homoeocarpa): 1.56 µg/mL; Independent MIC (Magnaporthe grisea): (3.13-6.25) μg/mL; Independent MIC (Fusarium graminearum; [4]): (200-400) μg/mL; Independent MIC (Aspergillus fumigatus): (25-50) μg/mL
C=CCOC1=NS(=O)(=O)c2ccccc21 [Probenazole, probenazole]	100	200	50 to 100	100 (≈ 448 µM)	200	–	–	–	MIC (Phytophthora pini): 200 µg/mL; MIC [2]: 200 µg/mL
CCCOC(=O)NCCCN(C)C [Propamocarb, propamocarb]	100 to 400	200 to 400	200	–	100 to 200	–	–	–	–
CCCC1COC(Cn2cncn2)(c2ccc(Cl)cc2Cl)O1 (stereo not shown) [Propiconazole, propiconazole]	1.25 to 3.12	50	0.5 to 1	1.56 (≈ 4.56 µM)	100 to 160	12.5	2.5 to 6.25	12.5 to 24	Independent MIC (Rhizopus sp.; [5]): 12.5 µg/mL; MIC (Botrytis cinerea B17): 1 to 2 µg/mL; MIC (Fusarium verticillioides): 0.5 to 2 µg/mL; MIC (Aureobasidium pullulans; 72 h): 1.56 to 6 µg/mL; MIC (Stachybotrys chartarum): 6.25 to 12.5 µg/mL; MIC (Fusarium graminearum): 12.5 to 25 µg/mL (≈ 36.5 to 73.1 µM); MIC (Penicillium chrysogenum): 6.25 to 12.5 µg/mL; MIC [1]: 3.12 µg/mL; MIC (Aspergillus flavus): 6.25 to 12.5 µg/mL; MIC (Phytophthora pini): 6.25 µg/mL; MIC (Candida albicans): 100 to 200 µg/mL; MIC [3]: 200 µg/mL; MIC [2]: 3 to 6.25 µg/mL
COC(=O)N(OC)c1ccccc1COc1ccn(-c2ccc(Cl)cc2)n1 [Pyraclostrobin, pyraclostrobin]	200	100	0.5	0.02 to 0.025 (≈ 0.0516 to 0.0645 µM)	50 to 100	25 to 50	20 to 25	50	MIC (Botrytis cinerea B17): 3.75 to 8 µg/mL; MIC (Aureobasidium pullulans; [4]): 0.188 to 0.78 µg/mL; MIC (Stachybotrys chartarum): 1.56 to 4 µg/mL; MIC (Fusarium graminearum): 200 µg/mL (≈ 516 µM); MIC (Penicillium chrysogenum): 0.1 to 0.4 µg/mL; MIC [1]: 3.12 µg/mL; MIC (Phytophthora pini): 1.56 µg/mL; MIC [3]: 100 to 200 µg/mL; MIC [2]: 2 to 4 µg/mL
Fc1ccc(Oc2ccnc3cc(Cl)cc(Cl)c23)cc1 [Quinoxyfen, quinoxyfen]	50 to 100	–	–	–	–	–	–	100 to 200	–
O=[N+]([O-])c1c(Cl)c(Cl)c(Cl)c(Cl)c1Cl [Quintozene, quintozene]	–	–	–	–	–	–	–	–	Independent MIC (Botrytis cinerea 10-1728): 50 µg/mL; Independent MIC [1]: (25-50) μg/mL
C=CC1(C)OC(=O)N(c2cc(Cl)cc(Cl)c2)C1=O (stereo not shown) [Vinclozolin, vinclozolin]	100 to 400	100 to 200	4 to 5	–	–	50 to 100	100 to 200	100	MIC [2]: 6.25 to 16 µg/mL
CCC(C)(NC(=O)c1cc(Cl)c(C)c(Cl)c1)C(=O)CCl (stereo not shown) [Zoxamide, zoxamide]	0.39 to 1.6	–	–	–	–	–	–	–	–
